One test has as its target T1, human recombinant HDAC6 (Homo sapiens, UniProt Q9UBN7).
T1 construct: purchased Calbiochem 382180
T1 sequence (Q9UBN7 1-1215): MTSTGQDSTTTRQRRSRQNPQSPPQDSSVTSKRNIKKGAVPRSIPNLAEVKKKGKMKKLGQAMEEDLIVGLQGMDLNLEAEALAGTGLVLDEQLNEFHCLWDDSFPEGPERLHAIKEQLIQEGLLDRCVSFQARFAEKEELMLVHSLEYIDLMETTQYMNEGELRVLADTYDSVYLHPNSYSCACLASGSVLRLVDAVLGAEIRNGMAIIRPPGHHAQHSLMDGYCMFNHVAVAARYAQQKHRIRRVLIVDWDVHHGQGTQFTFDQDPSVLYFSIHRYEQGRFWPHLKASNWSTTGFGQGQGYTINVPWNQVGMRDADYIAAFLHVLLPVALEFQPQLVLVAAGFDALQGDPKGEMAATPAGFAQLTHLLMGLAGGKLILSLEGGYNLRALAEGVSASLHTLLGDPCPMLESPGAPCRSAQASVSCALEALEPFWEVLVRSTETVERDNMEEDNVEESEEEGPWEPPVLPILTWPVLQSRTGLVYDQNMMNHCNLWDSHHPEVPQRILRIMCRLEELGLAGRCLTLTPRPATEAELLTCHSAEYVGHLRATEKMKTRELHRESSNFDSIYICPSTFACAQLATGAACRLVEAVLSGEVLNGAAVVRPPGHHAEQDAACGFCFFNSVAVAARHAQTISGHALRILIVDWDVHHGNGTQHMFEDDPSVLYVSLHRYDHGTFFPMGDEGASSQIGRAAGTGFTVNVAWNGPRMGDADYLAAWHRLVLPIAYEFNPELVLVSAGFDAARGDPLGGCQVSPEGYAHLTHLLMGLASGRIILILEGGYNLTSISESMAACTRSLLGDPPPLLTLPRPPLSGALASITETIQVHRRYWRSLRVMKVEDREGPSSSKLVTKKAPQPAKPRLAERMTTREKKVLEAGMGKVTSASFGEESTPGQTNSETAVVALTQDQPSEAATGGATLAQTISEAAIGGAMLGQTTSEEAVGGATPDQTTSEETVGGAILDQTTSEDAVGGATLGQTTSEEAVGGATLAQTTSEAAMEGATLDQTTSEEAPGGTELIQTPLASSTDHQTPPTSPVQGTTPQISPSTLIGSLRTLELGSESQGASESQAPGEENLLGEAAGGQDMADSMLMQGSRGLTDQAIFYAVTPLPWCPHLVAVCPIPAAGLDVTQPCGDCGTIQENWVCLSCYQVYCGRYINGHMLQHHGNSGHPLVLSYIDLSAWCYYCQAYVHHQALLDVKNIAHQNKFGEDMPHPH
Nature of the test: HDAC6 enzyme activity inhibition (fluorimetric, in vitro). Type of test: biochemical. As to conditions: samples at 0.1, 1, 10, 100 and 1000 nM. The protocol: (§1) A HDAC enzyme inhibitory capacity of a test material was measured by using HDAC1 Fluorimetric Drug Discovery Assay Kit (Enzolifesciences: BML-AK511) and HDAC6 human recombinant (Calbiochem: 382180). For a HDAC1 assay, samples were treated at a concentration of 100, 1000 and 10000 nM. For a HDAC6 assay, samples were treated at a concentration of 0.1, 1, 10, 100 and 1000 nM.
(§2) For the test on the HDAC1 enzyme activity, human recombinant HDAC1 (BML-SE456) was used as a zymogen and Fluor de Lys®-SIRT1 (BNL-KI177) was used as a substrate. A 5-fold dilution of the compound was divided into a 96-well plate, after which 0.3 μg of the enzyme and […] of the substrate were inserted into each well and subjected to reaction at 37° C. for 60 minutes, such that Fluor de Lys® Developer II (BML-K1176) was inserted thereinto and subjected to reaction for 30 minutes and finished. After that, a fluorescence value (Ex 360, Em 460) was measured with a multi-plate reader (FlexStation 3, Molecular Device). An experiment on HDAC6 enzyme was conducted in accordance with the same protocol as in the HDAC1 enzyme activity test method by using human recombinant HDAC6 (382180) of Calbiochem Inc. For final result values, each IC50 value was calculated with GraphPad Prism 4.0 program.

Another test addresses T2, human recombinant HDAC1 (Homo sapiens, UniProt Q13547).
T2 construct: purchased Enzolifesciences BML-SE456
Nature of the test: HDAC1 enzyme activity inhibition (HDAC1 Fluorimetric Drug Discovery Assay Kit, in vitro). The test is classed as biochemical. As to conditions: samples at 100, 1000 and 10000 nM. The protocol:
as §1, §2

T2 sequence (Q13547 whole entry): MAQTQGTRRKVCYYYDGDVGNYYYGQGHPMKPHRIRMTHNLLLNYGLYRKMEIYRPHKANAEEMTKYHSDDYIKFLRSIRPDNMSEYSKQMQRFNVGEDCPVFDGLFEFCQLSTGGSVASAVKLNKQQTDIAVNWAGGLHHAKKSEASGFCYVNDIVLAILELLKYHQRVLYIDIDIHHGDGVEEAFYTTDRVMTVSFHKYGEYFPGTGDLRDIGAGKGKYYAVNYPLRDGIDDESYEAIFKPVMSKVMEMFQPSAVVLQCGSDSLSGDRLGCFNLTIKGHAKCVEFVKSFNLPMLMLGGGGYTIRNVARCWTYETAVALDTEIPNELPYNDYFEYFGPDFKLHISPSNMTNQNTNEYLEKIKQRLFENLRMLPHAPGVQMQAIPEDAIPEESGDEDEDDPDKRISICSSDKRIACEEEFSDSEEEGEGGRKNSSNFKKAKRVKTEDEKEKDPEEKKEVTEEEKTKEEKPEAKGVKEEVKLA

For orientation: IC50 means the concentration that gives 50% inhibition. With `CS(=O)(=O)N=S1(=O)CCN(C(=O)N(Cc2ccc(-c3nnc(C(F)F)o3)cc2F)c2ccccc2)CC1` [Compound 37, N-(4-(5-(difluoromethyl)-1,3,4-oxadiazol-2-yl)-2-fluorobenzyl)-1-((methylsulfonyl)imino)-N-phenylthiomorpholin-4-carboxamide 1-oxide], the values for the IC50 at human recombinant HDAC6 and on human recombinant HDAC1 were 61.3 nM and over 10000 nM, respectively.

On to `COC(=O)N=S1(=O)CCN(C(=O)N(Cc2ccc(-c3nnc(C(F)F)o3)cc2F)c2ccccc2)CC1` [Compound 38, Methyl (4-((4-(5-(difluoromethyl)-1,3,4-oxadiazol-2-yl)-2-fluorobenzyl)(phenyl)carbamoyl)-1-oxidothiomorpholin-1-ylidene)carbamate], for which the half-maximal inhibitory concentration (IC50) at human recombinant HDAC6 is 67.2 nM; on human recombinant HDAC1 it was over 10000 nM.

For the compound `CN=S1(=O)CCN(C(=O)N(Cc2ccc(-c3nnc(C(F)F)o3)cc2F)c2ccccc2)CC1` [Compound 39, N-(4-(5-(difluoromethyl)-1,3,4-oxadiazol-2-yl)-2-fluorobenzyl)-1-(methylimino)-N-phenylthiomorpholin-4-carboxamide 1-oxide], the IC50 at human recombinant HDAC6 was 80.8 nM; at human recombinant HDAC1, over 10000 nM.

Regarding `CC(=O)N=S1(=O)CCN(C(=O)N(Cc2ccc(-c3nnc(C(F)F)o3)cc2F)c2ccccc2)CC1` [Compound 40, 1-(acetylimino)-N-(4-(5-(difluoromethyl)-1,3,4-oxadiazol-2-yl)-2-fluorobenzyl)-N-phenylthiomorpholin-4-carboxamide 1-oxide], the IC50 at human recombinant HDAC6 is 84.8 nM; on human recombinant HDAC1, over 10000 nM.

For `N=S1(=O)CCN(C(=O)N(Cc2ccc(-c3nnc(C(F)F)o3)cc2F)c2cccc(Br)c2)CC1` [Compound 41, N-(3-bromophenyl)-N-(4-(5-(difluoromethyl)-1,3,4-oxadiazol-2-yl)-2-fluorobenzyl)-1-iminothiomorpholin-4-carboxamide 1-oxide], the values for the IC50 on human recombinant HDAC6 and at human recombinant HDAC1 were 28.9 nM and over 10000 nM, respectively.

On to `N=S1(=O)CCN(C(=O)N(Cc2ccc(-c3nnc(C(F)F)o3)cc2F)c2ccc(Cl)c(Cl)c2)CC1` [Compound 42, N-(3,4-dichlorophenyl)-N-(4-(5-(difluoromethyl)-1,3,4-oxadiazol-2-yl)-2-fluorobenzyl)-1-iminothiomorpholin-4-carboxamide 1-oxide], for which the IC50 at human recombinant HDAC6 was 37.7 nM; at human recombinant HDAC1, over 10000 nM.

Turning to `N=S1(=O)CCN(C(=O)N(Cc2ccc(-c3nnc(C(F)F)o3)cc2F)c2cccc(-c3cncs3)c2)CC1` [Compound 43, N-(4-(5-(difluoromethyl)-1,3,4-oxadiazol-2-yl)-2-fluorobenzyl)-1-imino-N-(3-(thiazole-5-yl)phenyl)thiomorpholin-4-carboxamide 1-oxide], the IC50 at human recombinant HDAC6 was 88.9 nM; at human recombinant HDAC1, over 10000 nM.

As to `N=S1(=O)CCN(C(=O)N(Cc2ccc(-c3nnc(C(F)F)o3)cc2F)c2cccc(-c3ccco3)c2)CC1` [Compound 44, N-(4-(5-(difluoromethyl)-1,3,4-oxadiazol-2-yl)-2-fluorobenzyl)-N-(3-(furan-2-yl)phenyl)-1-iminothiomorpholin-4-carboxamide 1-oxide], the IC50 is 130 nM on human recombinant HDAC6 and over 10000 nM on human recombinant HDAC1.

On to `N=S1(=O)CCN(C(=O)N(Cc2ccc(-c3nnc(C(F)F)o3)cn2)c2cc(F)ccc2F)CC1` [Compound 45, N-((5-(5-(difluoromethyl)-1,3,4-oxadiazol-2-yl)pyridin-2-yl)methyl)-N-(2,5-difluorophenyl)-1-iminothiomorpholin-4-carboxamide 1-oxide], for which the IC50 at human recombinant HDAC6 is 63.6 nM; at human recombinant HDAC1, over 10000 nM.

With `N=S1(=O)CCN(C(=O)N(Cc2ncc(-c3nnc(C(F)F)o3)cc2F)c2cc(F)ccc2F)CC1` [Compound 46, N-((5-(5-(difluoromethyl)-1,3,4-oxadiazol-2-yl)-3-fluoropyridin-2-yl)methyl)-N-(2,5-difluorophenyl)-1-iminothiomorpholin-4-carboxamide 1-oxide], the IC50 on human recombinant HDAC6 was 65.9 nM; on human recombinant HDAC1, over 10000 nM.

For the compound `N=S1(=O)CCN(C(=O)N(Cc2ccc(-c3nnc(C(F)F)o3)cc2F)c2cccc(-c3cccnc3)c2)CC1` [Compound 47, N-(4-(5-(difluoromethyl)-1,3,4-oxadiazol-2-yl)-2-fluorobenzyl)-1-imino-N-(3-(pyridin-3-yl)phenyl)thiomorpholin-4-carboxamide 1-oxide], the figures for the IC50 on human recombinant HDAC6 and at human recombinant HDAC1 were 185 nM and over 10000 nM, respectively.

Take `N=S1(=O)CCC(N2C[C@@H]3C[C@H]2CN3C(=O)N(Cc2ccc(-c3nnc(C(F)F)o3)cn2)c2ccccc2F)CC1` (stereo partly drawn) [Compound 48, (1S,4S)—N-((5-(5-(difluoromethyl)-1,3,4-oxadiazol-2-yl)pyridin-2-yl)methyl)-N-(2-fluorophenyl)-5-(1-imino-1-oxidotetrahydro-2H-thiopyran-4-yl)-2,5-diazabicyclo[2.2.1]heptan-2-carboxamide]: the 50% inhibitory concentration (IC50) at human recombinant HDAC6 is 113 nM; on human recombinant HDAC1, over 10000 nM.

Take `N=S1(=O)CCN(C(=O)N(Cc2ccc(-c3nnc(C(F)F)o3)cn2)c2ccc(Cl)cc2Cl)CC1` [Compound 49, N-(2,4-dichlorophenyl)-N-((5-(5-(difluoromethyl)-1,3,4-oxadiazol-2-yl)pyridin-2-yl)methyl)-1-iminothiomorpholin-4-carboxamide 1-oxide]: the values for the IC50 at human recombinant HDAC6 and at human recombinant HDAC1 were 77.7 nM and over 10000 nM, respectively.

Consider `N=S1(=O)CCN(C(=O)N(Cc2ncc(-c3nnc(C(F)F)o3)cc2F)c2ccc(Cl)cc2Cl)CC1` [Compound 50, N-(2,4-dichlorophenyl)-N-((5-(5-(difluoromethyl)-1,3,4-oxadiazol-2-y1)-3-fluoropyridin-2-yl)methyl)-1-iminothiomorpholin-4-carboxamide 1-oxide], for which the IC50 was 66.4 nM on human recombinant HDAC6 and over 10000 nM on human recombinant HDAC1.

Turning to `N=S1(=O)CCN(C(=O)N(Cc2ccc(-c3nnc(C(F)F)o3)cc2F)c2ccc(Cl)cc2Cl)CC1` [Compound 51, N-(2,4-dichlorophenyl)-N-(4-(5-(difluoromethyl)-1,3,4-oxadiazol-2-y1)-2-fluorobenzyl)-1-iminothiomorpholin-4-carboxamide 1-oxide], the IC50 at human recombinant HDAC6 was 69.9 nM; on human recombinant HDAC1, over 10000 nM.

As for `CC(=O)N=S1(=O)CCN(C(=O)N(Cc2ccc(-c3nnc(C(F)F)o3)cn2)c2ccccc2)CC1` [Compound 52, 1-(acetylimino)-N-((5-(5-(difluoromethyl)-1,3,4-oxadiazol-2-yl)pyridin-2-yl)methyl)-N-phenylthiomorpholin-4-carboxamide 1-oxide], the results for the IC50 at human recombinant HDAC6 and on human recombinant HDAC1 were 46.9 nM and over 10000 nM, respectively.

Regarding `CS(=O)(=O)N=S1(=O)CCN(C(=O)N(Cc2ccc(-c3nnc(C(F)F)o3)cn2)c2ccccc2)CC1` [Compound 53, N-((5-(5-(difluoromethyl)-1,3,4-oxadiazol-2-yl)pyridin-2-yl)methyl)-1-((methylsulfonyl)imino)-N-phenylthiomorpholin-4-carboxamide 1-oxide], the values for the IC50 on human recombinant HDAC6 and on human recombinant HDAC1 were 40.6 nM and over 10000 nM, respectively.

Consider `N=S1(=O)CCN(C(=O)N(Cc2c(F)cc(-c3nnc(C(F)F)o3)cc2F)c2ccccc2F)CC1` [Compound 54, N-(4-(5-(difluoromethyl)-1,3,4-oxadiazol-2-y1)-2,6-difluorobenzyl)-N-(2-fluorophenyl)-1-iminothiomorpholin-4-carboxamide 1-oxide], for which the IC50 at human recombinant HDAC6 was 200 nM; on human recombinant HDAC1 it was over 10000 nM.

For the origin of these results see patent US20260125370A1, “SULFOXIMINE COMPOUNDS AS HISTONE DEACETYLASE 6 INHIBITOR, AND PHARMACEUTICAL COMPOSITION COMPRISING THE SAME” (CHONG KUN DANG PHARMACEUTICAL CORP., priority 2022, published 2026).
